Experimental data from ChEMBL document CHEMBL4229419, “Phosphorus-containing isothiocyanate-derived mercapturic acids as a useful alternative for parental isothiocyanates in experimental oncology” (Bioorg Med Chem Lett, 2018).
Activity calls are given as the source filed them. The calls are words filed in the database; no cut-off is given here.

Key:
[1] = tested on: LoVo; assay: Antiproliferative activity against human LoVo cells after 72 hrs by SRB assay; assay type: functional, cell-based
[2] = Antiproliferative activity against human LoVo/DX cells after 72 hrs by SRB assay; assay type: functional, cell-based
[3] = Resistance index, ratio of IC50 for antiproliferative activity against human HL60/MX2 cells to IC50 for antiproliferative activity against human HL60 cells; assay type: functional
[4] = tested on: BALB/3T3; assay: Antiproliferative activity against mouse BALB/3T3 cells after 72 hrs by MTT assay; assay type: cell-based; conditions: BALB/3T3, 72 h
[5] = tested on: 4T1; assay: Antiproliferative activity against mouse 4T1 cells after 72 hrs by MTT assay; assay type: functional, cell-based; conditions: 4T1, 72 h
[6] = tested on: MES-SA; assay: Antiproliferative activity against human MES-SA cells after 72 hrs by SRB assay; assay type: functional, cell-based
[7] = tested on: MES-SA/Dx5; assay: Antiproliferative activity against human MES-SA/Dx5 cells after 72 hrs by SRB assay; assay type: functional, cell-based; conditions: MES-SA/Dx5, 72 h
[8] = tested on: HL60/MX2; assay: Antiproliferative activity against human HL60/MX2 cells after 72 hrs by SRB assay; assay type: functional, cell-based; conditions: HL60/MX2, 72 h
[9] = tested on: HL-60; assay: Antiproliferative activity against human HL60 cells after 72 hrs by SRB assay; assay type: functional, cell-based; conditions: HL-60, 72 h
[10] = tested on: LoVo; assay: Cell cycle arrest in human LoVo cells assessed as accumulation at G2/M phase at 15 uM after 24 hrs by propidium iodide staining based flow cytometry (reference value: 21%); assay type: functional
[11] = tested on: LoVo; assay: Induction of apoptosis in human LoVo cells assessed as caspase-3 activation at 15 uM after 24 hrs by Ac-DEVD-ACC substrate based fluorescence assay relative to control; assay type: functional

IC50 [1] | Structure (SMILES) | IC50 [2] | other results
3 µM | CC(=O)N[C@@H](CSC(=S)NCCCCP(=O)(OCC(C)C)OCC(C)C)C(=O)O | 9 µM | 
2.2 µM | O=P(CCCCN=C=S)(c1ccccc1)c1ccccc1 | 2.2 µM | 
1.8 µM | CC(=O)N[C@@H](CSC(=S)NCCCCCCP(=O)(OC(C)C)OC(C)C)C(=O)O | 3.4 µM | Ratio IC50 [3]: 5; IC50 [4]: 10.9 µM; IC50 [5]: 2.5 µM; IC50 [6]: 9.9 µM; IC50 [7]: 10.3 µM; IC50 [8]: 3 µM; IC50 [9]: 0.6 µM; Activity [10]: 24%; fold change (FC) [11]: 2.2
2.2 µM | O=P(CCCCCCN=C=S)(c1ccccc1)c1ccccc1 | 3.1 µM | 
19.3 µM | CC(=O)N[C@@H](CSC(=S)NCCCP(=O)(OCC(C)C)OCC(C)C)C(=O)O | 17.9 µM | 
2.6 µM | CC(=O)N[C@@H](CSC(=S)NCCCCP(=O)(OC(C)C)OC(C)C)C(=O)O | 8.9 µM | 
2 µM | CC(=O)N[C@@H](CSC(=S)NCCP(=O)(c1ccccc1)c1ccccc1)C(=O)O | 7.7 µM | 
2 µM | CCOP(=O)(CCCCCNC(=S)SC[C@H](NC(C)=O)C(=O)O)c1ccccc1 (some centres not stated) | 3.3 µM | 
 | O=C1c2c(O)ccc(O)c2C(=O)c2c(NCCNCCO)ccc(NCCNCCO)c21 [MITOXANTRONE] |  | Ratio IC50 [3]: 37
2.2 µM | CCOP(=O)(CCCNC(=S)SC[C@H](NC(C)=O)C(=O)O)OCC | 2.5 µM | 
2.2 µM | CCOP(=O)(CCCCCCNC(=S)SC[C@H](NC(C)=O)C(=O)O)OCC | 2.6 µM | 
1.5 µM | CCOP(=O)(CCCCCCNC(=S)SC[C@H](NC(C)=O)C(=O)O)c1ccccc1 (some centres not stated) | 2.2 µM | IC50 [4]: 7.9 µM; IC50 [5]: 1.9 µM; IC50 [6]: 2.8 µM; IC50 [7]: 2.6 µM; IC50 [8]: 0.7 µM; IC50 [9]: 0.4 µM; Activity [10]: 22%; fold change (FC) [11]: 2.8
2.5 µM | CCOP(=O)(CCCCNC(=S)SC[C@H](NC(C)=O)C(=O)O)c1ccccc1 (some centres not stated) | 3.5 µM | 
5.1 µM | CCOC(OCC)P(=O)(CCCCCCN=C=S)OCC (configuration not stated) | 10.6 µM | 
2.6 µM | CC(=O)N[C@@H](CSC(=S)NCCCCCP(=O)(OCC(C)C)OCC(C)C)C(=O)O | 8.8 µM | 
2.2 µM | CC(=O)N[C@@H](CSC(=S)NCCP(=O)(OCC(C)C)OCC(C)C)C(=O)O | 3.9 µM | 
3.1 µM | COP(=O)(CCCCN=C=S)c1ccccc1 (configuration not stated) | 2.3 µM | 
2.2 µM | CCOP(=O)(CCNC(=S)SC[C@H](NC(C)=O)C(=O)O)OCC | 8 µM | 
1.8 µM | COP(=O)(CCCCCCN=C=S)c1ccccc1 (configuration not stated) | 2.3 µM | 
2 µM | O=P(CCN=C=S)(c1ccccc1)c1ccccc1 | 2.2 µM | 
11.5 µM | CC(=O)N[C@@H](CSC(=S)NCc1ccccc1)C(=O)O | 15.4 µM | Activity [10]: 49%; fold change (FC) [11]: >10
3.3 µM | CCOP(=O)(CCCCNC(=S)SC[C@H](NC(C)=O)C(=O)O)OCC | 10 µM | 

IC50 [1] | Structure (SMILES) | IC50 [2] | other results
2.1 µM | CC(=O)N[C@@H](CSC(=S)NCCCCCCP(=O)(c1ccccc1)c1ccccc1)C(=O)O | 8.1 µM | 
2.5 µM | CCOP(=O)(CCCCN=C=S)c1ccccc1 (configuration not stated) | 4.1 µM | 
2.2 µM | CCOP(=O)(CCCNC(=S)SC[C@H](NC(C)=O)C(=O)O)c1ccccc1 (some centres not stated) | 3.4 µM | 
201 µM | CCCCNC(=S)SC[C@H](NC(C)=O)C(=O)O | 224 µM | 
20.5 µM | CC(=O)N[C@@H](CSC(=S)NCCCC[S+](C)[O-])C(=O)O (some centres not stated) | 14 µM | Activity [11]: Active
 | COc1cccc2c1C(=O)c1c(O)c3c(c(O)c1C2=O)C[C@@](O)(C(=O)CO)C[C@@H]3O[C@H]1C[C@H](N)[C@H](O)[C@H](C)O1 [DOXORUBICIN] |  | IC50 [6]: 0.16 µM; IC50 [7]: 16.2 µM
4.6 µM | CC(=O)N[C@@H](CSC(=S)NCCCP(=O)(c1ccccc1)c1ccccc1)C(=O)O | 5.6 µM | 
6.4 µM | CCOC(OCC)P(=O)(CCCCNC(=S)SC[C@H](NC(C)=O)C(=O)O)OCC (some centres not stated) | 11.3 µM | 
2.2 µM | CCOP(=O)(CCCCCNC(=S)SC[C@H](NC(C)=O)C(=O)O)OCC | 4 µM | 
1.5 µM | CC(=O)N[C@@H](CSC(=S)NCCCCCP(=O)(c1ccccc1)c1ccccc1)C(=O)O | 4.3 µM | 
2.4 µM | CC(=O)N[C@@H](CSC(=S)NCCCCCP(=O)(OC(C)C)OC(C)C)C(=O)O | 3.4 µM | 
3 µM | CCOC(OCC)P(=O)(CCCCCNC(=S)SC[C@H](NC(C)=O)C(=O)O)OCC (some centres not stated) | 8.4 µM | 
2.5 µM | COP(=O)(CCCCCNC(=S)SC[C@H](NC(C)=O)C(=O)O)c1ccccc1 (some centres not stated) | 2.6 µM | 
4.4 µM | CC(=O)N[C@@H](CSC(=S)NCCCCP(=O)(c1ccccc1)c1ccccc1)C(=O)O | 8.1 µM | 
11.1 µM | CC(=O)N[C@@H](CSC(=S)NCCCCCCP(=O)(OCC(C)C)OCC(C)C)C(=O)O | 10.9 µM | 
5 µM | CC(=O)N[C@@H](CSC(=S)NCCP(=O)(OC(C)C)OC(C)C)C(=O)O | 8.1 µM | 
3.1 µM | CC(=O)N[C@@H](CSC(=S)NCCCP(=O)(OC(C)C)OC(C)C)C(=O)O | 8.5 µM | 
2.7 µM | COP(=O)(CCCCNC(=S)SC[C@H](NC(C)=O)C(=O)O)c1ccccc1 (some centres not stated) | 2.9 µM | 
7 µM | CCOC(OCC)P(=O)(CCCCN=C=S)OCC (configuration not stated) | 11.2 µM | 
2.3 µM | CCOP(=O)(CCCCCCN=C=S)c1ccccc1 (configuration not stated) | 4 µM | 
2.1 µM | COP(=O)(CCCCCCNC(=S)SC[C@H](NC(C)=O)C(=O)O)c1ccccc1 (some centres not stated) | 2.8 µM | 
3.1 µM | CCOC(OCC)P(=O)(CCCCCCNC(=S)SC[C@H](NC(C)=O)C(=O)O)OCC (some centres not stated) | 10.4 µM | 

Structure (SMILES) | IC50 [1] | IC50 [2] | other results
CC(=O)N[C@@H](CSC(=S)NCCCCCP(=O)(Oc1ccccc1)Oc1ccccc1)C(=O)O | 1.9 µM | 8 µM | 
CC(=O)N[C@@H](CSC(=S)NCCCCP(=O)(Oc1ccccc1)Oc1ccccc1)C(=O)O | 2.2 µM | 7.9 µM | 
CC(=O)N[C@@H](CSC(=S)NCCCCCCP(=O)(Oc1ccccc1)Oc1ccccc1)C(=O)O | 2.5 µM | 11.3 µM | 
CC(=O)N[C@@H](CSC(=S)NCCP(=O)(Oc1ccccc1)Oc1ccccc1)C(=O)O | 3.5 µM | 9 µM | 
CC(=O)N[C@@H](CSC(=S)NCCCP(=O)(Oc1ccccc1)Oc1ccccc1)C(=O)O | 2 µM | 7.6 µM | 
